According to patent US12643867B2, “Compositions and uses thereof” (University of Virginia Patent Foundation, priority 2017, dated 2026):

These compounds were tested against T1, DGKK (Diacylglycerol kinase kappa) (Homo sapiens, UniProt Q5KSL6) (assay: SILAC LC-MS ATP acyl phosphate probe competition, recombinant DGK-HEK293T lysates). Conditions: site DAGKa (K892); ATP 1 mM; Ketanserin, Ritanserin 100 μM; RF001 1 mM.
T1 construct: host or cells: SILAC HEK293T
T1 sequence (Q5KSL6 1-1271): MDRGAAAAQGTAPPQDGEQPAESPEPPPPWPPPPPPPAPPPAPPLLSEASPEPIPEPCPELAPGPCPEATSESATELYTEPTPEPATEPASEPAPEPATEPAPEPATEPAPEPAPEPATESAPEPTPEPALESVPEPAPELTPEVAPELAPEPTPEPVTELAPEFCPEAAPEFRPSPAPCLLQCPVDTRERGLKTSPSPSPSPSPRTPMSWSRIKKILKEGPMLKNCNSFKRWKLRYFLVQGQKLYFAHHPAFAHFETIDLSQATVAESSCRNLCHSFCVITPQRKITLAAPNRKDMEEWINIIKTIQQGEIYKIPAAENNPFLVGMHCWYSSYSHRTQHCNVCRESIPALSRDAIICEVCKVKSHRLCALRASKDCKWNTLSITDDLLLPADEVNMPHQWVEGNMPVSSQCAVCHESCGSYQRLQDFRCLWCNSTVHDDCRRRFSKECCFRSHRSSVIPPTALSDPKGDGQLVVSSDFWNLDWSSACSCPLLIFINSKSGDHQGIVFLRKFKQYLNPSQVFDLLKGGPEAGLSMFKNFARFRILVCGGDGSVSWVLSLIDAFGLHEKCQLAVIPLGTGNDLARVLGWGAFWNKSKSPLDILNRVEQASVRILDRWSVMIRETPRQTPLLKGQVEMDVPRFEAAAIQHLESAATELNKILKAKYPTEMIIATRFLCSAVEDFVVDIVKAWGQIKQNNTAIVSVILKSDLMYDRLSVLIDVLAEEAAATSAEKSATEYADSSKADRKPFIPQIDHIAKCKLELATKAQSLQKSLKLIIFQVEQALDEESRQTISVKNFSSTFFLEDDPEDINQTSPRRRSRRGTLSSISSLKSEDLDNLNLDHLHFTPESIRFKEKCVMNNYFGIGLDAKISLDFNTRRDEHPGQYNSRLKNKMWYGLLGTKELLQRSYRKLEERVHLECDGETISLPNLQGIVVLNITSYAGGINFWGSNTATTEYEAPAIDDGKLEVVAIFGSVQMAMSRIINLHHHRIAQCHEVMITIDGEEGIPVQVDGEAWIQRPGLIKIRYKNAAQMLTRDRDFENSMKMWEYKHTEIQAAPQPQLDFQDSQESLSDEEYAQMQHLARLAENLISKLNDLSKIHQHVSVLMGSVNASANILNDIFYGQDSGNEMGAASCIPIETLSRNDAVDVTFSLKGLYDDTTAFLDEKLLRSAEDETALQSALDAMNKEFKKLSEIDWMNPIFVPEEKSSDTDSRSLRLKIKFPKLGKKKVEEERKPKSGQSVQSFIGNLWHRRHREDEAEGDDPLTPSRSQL
Type: binding
Text: Recombinant DGK proteins were produced by transient transfection of HEK293T cells with recombinant DNA. pDONR223-DGKK was a gift from William Hahn & David Root (Addgene plasmid #23487). pCSF107mT-GATEWAY-3′-FLAG was a gift from Todd Stukenberg (Addgene plasmid #67619). pCSF107mT-DGKK-FLAG construct was generated by recombination of the Addgene plasmids using the Gateway cloning system (Invitrogen). All other vectors were gifted to Dr. Kevin Lynch (University of Virginia, School of Medicine) by Dr. Kaoru Goto (Yamagata University, School of Medicine) and Dr. Fumio Sakane (Chiba University) and were kindly shared with us: pcDNA3-FLAG-DGKA (rat), pCMV-Tag2B-FLAG-DGKQ (human), pcDNA3-DGKE-3×Flag (human), and pCMV-SPORT6-HA-DGKZ (human). HEK293T cells were plated at a concentration of 400,000 cells in complete DMEM and grown to 50-60% confluency. A polyethyleneimine (PEI) stock solution was prepared (1 mg/mL, pH 7.4) and filter sterilized. Serum-free DMEM (600 μL) was mixed gently with 2.6 μg DNA and 20 μL of sterile PEI (1 mg/mL, pH 7.4) in a sterile microfuge tube. Mixtures were incubated for 30 min at 25° C. The mixture was then added drop-wise to each 10 cm^2 plate, rocked back and forth to mix, and placed back in the incubator. Cell pellets were harvested after two full days of growth, snap-frozen in liquid N2, and stored at −80° C. until use. Recombinant proteins were produced by transient transfection in SILAC HEK293T cells using the procedure described above, except that cells were plated at a concentration of 1×10^6 cells per 10 cm^2 plate and grown to ˜70% confluency prior to introducing transfection mixture.
Proteomes were diluted to 2 mg/ml in kinase buffer. The light and heavy proteomes (0.5 mg, 250 μL total reaction volume) were pre-treated with vehicle or compound, respectively (5 μL, DMSO (light) or 50× stock in DMSO (heavy)), mixed gently, and incubated at 25° C. for 30 min. […] After incubation, matched light and heavy proteomes were transferred and mixed in a 1:1 ratio in a two-dram vial containing 4:1:3 MeOH/CHCl3/H2O (2 mL MeOH, 500 AL CHCl3, 1.5 mL H2O) for extraction of proteins to remove excess probe, quickly vortexed, and centrifuged at 1,400×g for 3 min to pellet protein. Organic and aqueous layers were removed using a Pasteur pipette, and the protein pellet was transferred to a screw-top tube in 600 μL MeOH. A second extraction was performed by adding CHCl3 (150 μL) and H2O (600 μL) to each sample, vortexed, and centrifuged at 1,400×g for 3 min to pellet protein. Organic and aqueous layers were removed by pipetting. MeOH added to pellet (600 μL) and pellets were re-suspended by sonication (3×1 sec pulse, 20% amplitude) for a final extraction. Samples were then centrifuged at 17,000×g for 5 min to pellet protein and MeOH was removed by pipetting. The pellets were re-suspended in 10 M urea/25 mM ammonium bicarbonate ([…]), brought to a final volume of 1 mL with 25 mM ammonium bicarbonate, reduced with 10 mM DTT for 15 min at 65° C. allowed to cool, and then alkylated with 40 mM iodoacetamide for 30 min at 25° C. in the dark. To desalt the samples, each was transferred to a two-dram glass vial, and to the vial 4:1:2 MeOH/CHCl3/H2O (2 mL MeOH, 500 AL CHCl3, 1 mL H2O) was added. The vials were vortexed quickly, spun at 1.400×g for 3 min to pellet protein, and aqueous and organic layers were removed using a Pasteur pipette. The resulting protein pellet was transferred to a screw-top tube in 600 μL MeOH, and then CHCl3 (150 μL) and HO (600 μL) were added to extract protein a second time. The samples were vortexed quickly, centrifuged at 1,400×g to pellet protein, and the aqueous and organic layers were removed by pipetting. Resulting protein pellet was suspended in MeOH (600 μL) via sonication (3×1 sec pulse, 20% amplitude), centrifuged at 17,000×g for 5 min to pellet protein, and MeOH removed by pipetting. […]

SILAC ratio, DGKK DAGKa probe-modified peptide | SMILES
0.2 | O=C(c1ccc(F)cc1)C1CCN(CCn2c(=O)[nH]c3ccccc3c2=O)CC1 [Ketanserin]
1.6 | Fc1ccc(C(=C2CCNCC2)c2ccc(F)cc2)cc1 [RF001, 4-(Bis(4-fluorophenyl)methylene) piperidine]

SMILES | SILAC ratio, DGKK DAGKa probe-modified peptide
Cc1nc2sccn2c(=O)c1CCN1CCC(=C(c2ccc(F)cc2)c2ccc(F)cc2)CC1 [Ritanserin] | 0.7
